Earlier results as cited in publication PMC6309200 (Journal of Controlled Release, 2018).
Where a SMILES comes first, the peptide text is derived from it.

Test system: PA-specific CD8+ T cells
Settings: shown previously; ref [15]

SMILES: CC(=O)N[C@@H](CCC(N)=O)C(=O)N[C@@H](CCC(N)=O)C(=O)N[C@@H](CCCCN)C(=O)N[C@@H](Cc1ccccc1)C(=O)N[C@@H](CCC(N)=O)C(=O)N[C@@H](Cc1ccccc1)C(=O)N[C@@H](CCC(N)=O)C(=O)N[C@@H](Cc1ccccc1)C(=O)N[C@@H](CCC(=O)O)C(=O)N[C@@H](CCC(N)=O)C(=O)N[C@@H](CCC(N)=O)C(N)=O [Q11] (Ac-QQKFQFQFEQQ-NH2)
- Immunogenicity without attached competent epitopes: non-immunogenic
